The record followed here is patent publication US20130039928A1, “COMPOSITIONS AND METHODS FOR REVERSING CORTICOSTEROID RESISTANCE OR TREATING RESPIRATORY INFECTIONS” (priority 2010, published 2013).

The test system of this assay is Pseudomonas aeruginosa. The assay can be described thus: Bacterial clearance by THP-1 macrophages. Format: cell-based. The settings on record: after exposure with Poly(I) (10 μg/ml). The text has this:
The above data collectively indicate that the activation of Nrf2 improves bacterial phagocytosis and clearance by COPD macrophages. The dependence of Nrf2 on bacterial phagocytosis was investigated. […] This observations confirmed Nrf2-dependent modulation of bacterial phagocytosis and clearance. To determine the mechanisms by which Nrf2 regulates phagocytosis, microarray analysis was employed. […] To address whether sulforaphane-induced expression of MARCO correlates with bacterial clearance, differentiated human THP-1 macrophages were used. Bacterial clearance by sulforaphane treated THP-1 macrophages after exposure with polyinosinic acid (Poly(I)) was analyzed. Poly(I) is a non-selective class A scavenger receptor blocker that inhibits MARCO mediated bacterial uptake and clearance (G. M. DeLoid, T. H. Sulahian, A. Imrich, L. Kobzik, PLoS One 4, e6209 (2009)). […] Next, phagocytosis of FITC-Pseudomonas aeruginosa was examined in THP-1 macrophages with knockdown of MARCO using lentivirus-encoded shRNA (MARCO shRNA).
BMDM were isolated by culturing bone marrow cells in the presence of 10 ng/ml granulocyte-macrophage colony-stimulating factor (PeproTech) for 7 days. Murine macrophages were cultured in RPMI 1640 medium supplemented with 10% FBS and 1% penicillin-streptomycin. […]

For polyinosinic acid [Poly(I)], the “bacterial clearance by sulforaphane treated THP-1 macrophages” value is “significantly impaired sulforaphane ability to improve bacterial clearance”.
